{
  "source": "ChEMBL document CHEMBL4828750",
  "about": "“Structure-activity relationships of agonists for the orphan G protein-coupled receptor GPR27” (Eur J Med Chem, 2021)",
  "key": {"[1]": {"target": "T1, Probable G-protein coupled receptor 27 (Homo sapiens, UniProt Q9NS67)", "T1 sequence (Q9NS67 whole entry)": "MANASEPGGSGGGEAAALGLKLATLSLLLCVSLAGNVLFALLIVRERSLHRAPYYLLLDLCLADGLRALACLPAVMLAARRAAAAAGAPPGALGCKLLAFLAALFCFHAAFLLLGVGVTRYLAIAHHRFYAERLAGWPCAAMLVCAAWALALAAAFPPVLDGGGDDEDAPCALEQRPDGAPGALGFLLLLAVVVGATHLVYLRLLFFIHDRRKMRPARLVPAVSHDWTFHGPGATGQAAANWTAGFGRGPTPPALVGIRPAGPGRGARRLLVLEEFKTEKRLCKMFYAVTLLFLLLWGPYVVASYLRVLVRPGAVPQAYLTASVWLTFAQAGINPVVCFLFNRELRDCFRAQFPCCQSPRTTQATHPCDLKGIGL", "experiment": "Agonist activity at human GPR27 expressed in HEK293 cells co-expressing FnLArrb2.GPR27V2LFc assessed as induction of beta-arrestin recruitment incubated for 10 mins measured followed by addition of D-luciferin by firefly-luciferase complementation assay", "assay_type": "functional, cell-based"}, "[2]": {"tested_on": "HEK293", "experiment": "Cytotoxicity against human HEK293 cells expressing FnLArrb2.GPR27V2LFc up to 33.3 uM incubated for 10 mins by MTT assay", "assay_type": "cell-based", "settings": "hek293, 10 min"}, "[3]": {"target": "T1, Probable G-protein coupled receptor 27", "experiment": "Agonist activity at human GPR27 expressed in HEK293 cells assessed as induction of beta-arrestin recruitment pretreated with substrate for 45 mins followed by compound addition and measured for 40 mins by NanoLuc luciferase complementation assay", "assay_type": "functional, cell-based"}},
  "data": [
    {"smiles": "O=C(Nc1ccc(S(=O)(=O)Nc2ccccn2)cc1)c1ccc(Cl)cc1Cl", "values": [
      {"measurement": "EC50", "setting": "[1]", "value": 3020, "unit": "nM"}
    ]},
    {"smiles": "COc1ccc(NS(=O)(=O)c2ccc(NC(=O)c3ccc(Cl)cc3Cl)cc2)cc1", "values": [
      {"measurement": "EC50", "setting": "[1]", "value": "> 100000", "unit": "nM"}
    ]},
    {"smiles": "O=C(Cc1ccc(Cl)cc1Cl)Nc1ccc(S(=O)(=O)Nc2ccccc2)cc1", "values": [
      {"measurement": "EC50", "setting": "[1]", "value": "> 100000", "unit": "nM"}
    ]},
    {"smiles": "O=C(Nc1ccc(S(=O)(=O)Nc2ccccc2Cl)cc1)c1ccc(Cl)cc1Cl", "values": [
      {"measurement": "EC50", "setting": "[1]", "value": 1260, "unit": "nM"}
    ]},
    {"smiles": "O=C(Nc1ccc(S(=O)(=O)Nc2ccccc2)cc1)c1ccc(Br)cc1F", "values": [
      {"measurement": "EC50", "setting": "[1]", "value": 479, "unit": "nM"}
    ]},
    {"smiles": "O=C(Nc1ccc(S(=O)(=O)Nc2ncccn2)cc1)c1ccc(Cl)cc1Cl", "values": [
      {"measurement": "EC50", "setting": "[1]", "value": "> 100000", "unit": "nM"}
    ]},
    {"smiles": "CN(c1ccccc1)S(=O)(=O)c1ccc(NC(=O)c2ccc(Cl)cc2Cl)cc1", "values": [
      {"measurement": "EC50", "setting": "[1]", "value": 2570, "unit": "nM"}
    ]},
    {"smiles": "O=C(Nc1ccc(S(=O)(=O)Nc2ccccc2)cc1)c1ccc(Cl)cc1Cl", "values": [
      {"measurement": "EC50", "setting": "[1]", "value": 457, "unit": "nM"},
      {"measurement": "Activity", "setting": "[2]", "value": "Non-Toxic"},
      {"measurement": "EC50", "setting": "[3]", "value": 912, "unit": "nM"}
    ]},
    {"smiles": "COc1cc(Br)ccc1C(=O)Nc1ccc(S(=O)(=O)Nc2ccccc2)cc1", "values": [
      {"measurement": "EC50", "setting": "[1]", "value": 1020, "unit": "nM"}
    ]},
    {"smiles": "O=C(Nc1ccccc1)c1ccc(NC(=O)c2ccc(Cl)cc2Cl)cc1", "values": [
      {"measurement": "EC50", "setting": "[1]", "value": "> 10000", "unit": "nM"}
    ]},
    {"smiles": "O=C(Nc1ccc(S(=O)(=O)NCc2ccccc2)cc1)c1ccc(Cl)cc1Cl", "values": [
      {"measurement": "EC50", "setting": "[1]", "value": "> 100000", "unit": "nM"}
    ]},
    {"smiles": "Cc1cc(Br)ccc1C(=O)Nc1ccc(S(=O)(=O)Nc2ccccc2)cc1", "values": [
      {"measurement": "EC50", "setting": "[1]", "value": 851, "unit": "nM"},
      {"measurement": "Activity", "setting": "[2]", "value": "Non-Toxic"}
    ]},
    {"smiles": "O=C(NS(=O)(=O)c1ccc(NC(=O)c2ccc(Cl)cc2Cl)cc1)c1ccccc1", "values": [
      {"measurement": "EC50", "setting": "[1]", "value": "> 100000", "unit": "nM"}
    ]},
    {"smiles": "O=S(=O)(Nc1ccccc1)c1ccc(NS(=O)(=O)c2ccc(Cl)cc2Cl)cc1", "values": [
      {"measurement": "EC50", "setting": "[1]", "value": "> 100000", "unit": "nM"}
    ]},
    {"smiles": "O=C(Nc1ccc(S(=O)(=O)Nc2ccccc2)cc1)c1ccc(I)cc1F", "values": [
      {"measurement": "EC50", "setting": "[1]", "value": 5130, "unit": "nM"}
    ]},
    {"smiles": "O=C(Nc1ccc(S(=O)(=O)Nc2ccc(Cl)cc2)cc1)c1ccc(Cl)cc1Cl", "values": [
      {"measurement": "EC50", "setting": "[1]", "value": "> 100000", "unit": "nM"}
    ]},
    {"smiles": "N#Cc1ccc(C(=O)Nc2ccc(S(=O)(=O)Nc3ccccc3)cc2)c(F)c1", "values": [
      {"measurement": "EC50", "setting": "[1]", "value": 229, "unit": "nM"}
    ]},
    {"smiles": "O=C(Nc1ccc(S(=O)(=O)Nc2ccccc2)cc1)c1ccc(Cl)cc1Br", "values": [
      {"measurement": "EC50", "setting": "[1]", "value": 1020, "unit": "nM"}
    ]},
    {"smiles": "Cc1ccccc1NS(=O)(=O)c1ccc(NC(=O)c2ccc(Cl)cc2Cl)cc1", "values": [
      {"measurement": "EC50", "setting": "[1]", "value": 1230, "unit": "nM"}
    ]},
    {"smiles": "O=C(Nc1ccc(S(=O)(=O)Nc2ccccc2)cc1)c1ccc(Cl)nc1F", "values": [
      {"measurement": "EC50", "setting": "[1]", "value": 2290, "unit": "nM"}
    ]},
    {"smiles": "O=C(Nc1ccc(S(=O)(=O)Nc2ccccc2)cc1)c1ccc(Cl)cc1F", "values": [
      {"measurement": "EC50", "setting": "[1]", "value": 3980, "unit": "nM"}
    ]},
    {"smiles": "O=C(Nc1ccc(Cl)cc1Cl)c1ccc(S(=O)(=O)Nc2ccccc2)cc1", "values": [
      {"measurement": "EC50", "setting": "[1]", "value": "> 100000", "unit": "nM"}
    ]},
    {"smiles": "O=C(Nc1ccc(S(=O)(=O)Nc2ccccc2)cc1)c1cc(F)c(Cl)cc1F", "values": [
      {"measurement": "EC50", "setting": "[1]", "value": 141, "unit": "nM"}
    ]},
    {"smiles": "O=C(Nc1ccc(S(=O)(=O)Nc2nccs2)cc1)c1ccc(Cl)cc1Cl", "values": [
      {"measurement": "EC50", "setting": "[3]", "value": 1300, "unit": "nM"}
    ]},
    {"smiles": "O=C(Nc1ccc(S(=O)(=O)Nc2cccc(Cl)c2)cc1)c1ccc(Cl)cc1Cl", "values": [
      {"measurement": "EC50", "setting": "[1]", "value": 575, "unit": "nM"}
    ]},
    {"smiles": "O=C(Nc1ccc(S(=O)(=O)Nc2ccccc2)cc1)c1cc2ccccc2oc1=O", "values": [
      {"measurement": "EC50", "setting": "[1]", "value": 7760, "unit": "nM"}
    ]},
    {"smiles": "O=C(Nc1cccc(S(=O)(=O)Nc2ccccc2)c1)c1ccc(Cl)cc1Cl", "values": [
      {"measurement": "EC50", "setting": "[1]", "value": "> 100000", "unit": "nM"}
    ]},
    {"smiles": "O=C(Nc1ccc(S(=O)(=O)Nc2ccccc2)cc1)c1ncc(Cl)cc1Cl", "values": [
      {"measurement": "EC50", "setting": "[1]", "value": 5750, "unit": "nM"}
    ]},
    {"smiles": "Cc1cc(Cl)ccc1C(=O)Nc1ccc(S(=O)(=O)Nc2ccccc2)cc1", "values": [
      {"measurement": "EC50", "setting": "[1]", "value": 912, "unit": "nM"},
      {"measurement": "Activity", "setting": "[2]", "value": "Non-Toxic"}
    ]},
    {"smiles": "Cc1ccc(NS(=O)(=O)c2ccc(NC(=O)c3ccc(Cl)cc3Cl)cc2)cc1", "values": [
      {"measurement": "EC50", "setting": "[1]", "value": "> 100000", "unit": "nM"}
    ]},
    {"smiles": "O=C(Nc1ccc(S(=O)(=O)Nc2ccccc2)cc1)c1ccc2ccccc2c1", "values": [
      {"measurement": "EC50", "setting": "[1]", "value": 8510, "unit": "nM"}
    ]},
    {"smiles": "O=C(Nc1ccc(S(=O)(=O)Nc2ccccc2)cc1)c1ccc(C(F)(F)F)cc1F", "values": [
      {"measurement": "EC50", "setting": "[1]", "value": 363, "unit": "nM"},
      {"measurement": "Activity", "setting": "[2]", "value": "Non-Toxic"}
    ]}
  ]
}
